In patent US9388142B2, “Quinazolinone derivatives as PARP inhibitors” (MERCK PATENT GMBH, priority 2012, dated 2016):

Key:
[1] = target: T1, GST-tagged Tnks-1 (1023-1327 aa) (Homo sapiens, UniProt O95271); experiment: TNKS1 activity ELISA (autoparsylation assay); assay type: biochemical; details: read-out: IC50 TNKS1 ELISA
T1 construct: GST-tagged Tnks-1 (1023-1327 aa, prepared in-house); made in house
Method: (§1) Description of the TNKS1 and TNKS2 ELISA Assay
(§2) Then the activity assay with biotinylated NAD is performed in the absence/presence of the compounds. During the enzymatic reaction GST tagged TNKS transfers biotinylated ADP-ribose to itself from biotinylated NAD as co-substrate. For the detection streptavidin-HRP conjugate is added that binds to the biotinylated TNKS and is thereby captured to the plates. The amount of biotinylated resp. autoparsylated TNKS is detected with a luminescence substrate for HRP. The level of the luminescence signal correlates directly with the amount of autoparsylated TNKS and therefore with activity of TNKS.
(§3) The activity ELISA is performed in 384 well Glutathione coated microtiter plates (Express capture Glutathione coated plate, Biocat, Heidelberg, Germany). The plates are pre-equilibrated with PBS. […] The plates are washed 3 times with PBS-Tween-20. The wells are blocked by incubation at room temperature for 20 minutes with 50 μl blocking buffer (PBS, 0.05% Tween-20, 0.5% BSA). Afterwards the plates are washed 3 times with PBS-Tween-20. […] The reaction is stopped by 3 times washing with PBS-Tween-20. For the detection 50 μl of 20 ng/μl Streptavidin, HRP conjugate (MoBiTec, Gottingen, Germany) in PBS/0.05% Tween-20/0.01% BSA are added and the plates are incubated for 30 minutes at room temperature. After three times washing with PBS-Tween-20 50 μl of SuperSignal ELISA Femto Maximum sensitivity substrate solution (ThermoFisherScientific (Pierce), Bonn, Germany) are added. Following a 1 minute incubation at room temperature luminescence signals are measured with an Envision multimode reader (Perkin Elmer LAS Germany GmbH) at 700 nm. The full value used is the inhibitor-free reaction. […] The inhibitory values (IC50) are determined using either the program Symyx Assay Explorer® or Condosseo® from GeneData.

[2] = target: GST-tagged Tnks-2 (873-1166 aa) (Homo sapiens, UniProt Q9H2K2); experiment: biochemical
Method: as §1, §2, §3

Chain of GST-tagged Tnks-2 (873-1166 aa) (Q9H2K2 873-1166): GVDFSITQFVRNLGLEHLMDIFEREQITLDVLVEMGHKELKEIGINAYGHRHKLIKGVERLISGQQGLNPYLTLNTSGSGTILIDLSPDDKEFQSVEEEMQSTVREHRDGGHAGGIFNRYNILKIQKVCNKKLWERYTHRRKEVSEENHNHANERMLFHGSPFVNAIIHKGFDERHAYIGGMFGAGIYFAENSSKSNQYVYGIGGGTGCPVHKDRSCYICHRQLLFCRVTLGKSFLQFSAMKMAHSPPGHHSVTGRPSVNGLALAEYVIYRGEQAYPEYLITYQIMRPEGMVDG
T1 sequence (O95271 1023-1327): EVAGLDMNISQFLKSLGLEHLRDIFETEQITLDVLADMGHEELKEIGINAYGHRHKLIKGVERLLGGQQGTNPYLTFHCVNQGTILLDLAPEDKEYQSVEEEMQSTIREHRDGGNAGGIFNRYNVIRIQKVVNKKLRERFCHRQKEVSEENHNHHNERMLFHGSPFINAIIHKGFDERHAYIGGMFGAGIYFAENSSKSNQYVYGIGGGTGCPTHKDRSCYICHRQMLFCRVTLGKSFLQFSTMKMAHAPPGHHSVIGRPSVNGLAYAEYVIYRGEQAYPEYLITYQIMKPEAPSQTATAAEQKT

Row | Structure (SMILES) | IC50 [1] | IC50 [2]
1 | CCC(O)(CC)c1ccc(-c2nc3ccc(F)cc3c(=O)[nH]2)cc1 [Compound A14, 2-[4-(1-ethyl-1-hydroxy-propyl)phenyl]-6-fluoro-3H-quinazolin-4-one] | < 0.3 µM | < 0.3 µM
2 | Cc1cc(F)cc2c(=O)[nH]c(-c3ccc(N4CCC(CO)CC4)cc3)nc12 [Compound A31, 6-fluoro-2-[4-(4-hydroxymethyl-piperidin-1-yl)-phenyl]-8-methyl-3H-quinazolin-4-one] | < 0.3 µM | < 0.3 µM
3 | Cc1cc(F)cc2c(=O)[nH]c(-c3ccc(N4CCC(O)CC4)cc3)nc12 [Compound A29, 6-fluoro-2-[4-(4-hydroxy-piperidin-1-yl)-phenyl]-8-methyl-3H-quinazolin-4-one] | < 0.3 µM | < 0.3 µM
4 | O=c1[nH]c(-c2ccc(C3(O)CCCC3)cc2)nc2ccc(F)cc12 [Compound A16, 6-fluoro-2-[4-(1-hydroxycyclopentyl)phenyl]-3H-quinazolin-4-one] | < 0.3 µM | < 0.3 µM
5 | CC(C)(O)c1ccc(-c2nc3c(F)cc(F)c(F)c3c(=O)[nH]2)cc1 [Compound A26, 5,6,8-trifluoro-2-[4-(1-hydroxy-1-methyl-ethyl)-phenyl]-3H-quinazolin-4-one] | < 0.3 µM | < 0.3 µM
